Reference: ChEMBL document CHEMBL5352412, “Discovery of 1,2-diphenylethene derivatives as human DNA topoisomerase II catalytic inhibitors and antitumor agents” (Eur J Med Chem, 2022)
Values joined by “and” are separate entries in the source; they are usually repeats but may differ in a detail not shown here. Equal values may be shown once. Active and inactive are the calls of the source. The rule behind the calls is not given here.

Assays:
HepG2 [1] = experiment: Induction of cell cycle arrest in human HepG2 cells assessed as accumulation of cells at G2/M phase at 1 uM incubated for 24 hrs by PI staining based flow cytometry analysis (reference value: 17.5%); type: functional
HepG2 [2] = experiment: Antiproliferative activity against human HepG2 cells incubated for 72 hrs by CCK8 assay; type: functional, cell-based
HCT-116 = experiment: Antiproliferative activity against human HCT-116 cells incubated for 72 hrs by CCK8 assay; type: functional, cell-based; settings: HCT-116, 72 h
[3] = Toxicity in C57BL/6J mouse assessed as animal death at 500 mg/kg administered via gavage twice at day 1 and measured for 7 days; type: organism-based; settings: in vivo, po, time 7 day, read-out: Activity
HepG2 [4] = experiment: Induction of apoptosis in human HepG2 cells assessed as necrotic cells at 5 uM incubated for 24 hrs by annexin-V FITC and PI staining based flow cytometry analysis (reference value: 0.2%); type: functional
[5] = biological target: T1, DNA topoisomerase 2-alpha (Homo sapiens, UniProt P11388); experiment: Poison activity at human topoisomerase 2-alpha assessed as linear DNA formation at 100 to 200 microM; settings: dose 100-200 µM
[6] = biological target: T1, DNA topoisomerase 2-alpha; experiment: Inhibition of human topoisomerase 2-alpha assessed as DNA intercalation at 100 to 200 uM using pBR322 DNA as substrate measured after 30 mins by agarose gel electrophoresis analysis; settings: dose 100-200 µM
[7] = Toxicity in C57BL/6J mouse assessed as change in body weight at 500 mg/kg administered via gavage twice at day 1 and measured for 7 days; type: organism-based; settings: in vivo, po, 168 h, time 7 day
A549 = experiment: Antiproliferative activity against human A549 cells incubated for 72 hrs by CCK8 assay; type: functional, cell-based; settings: A549, 72 h
[8] = Antiproliferative activity against human HL7702 cells incubated for 72 hrs by CCK8 assay; type: toxicity, cell-based; settings: HL7702 (L02) cells
HepG2 [9] = experiment: Induction of apoptosis in human HepG2 cells assessed as viable cells at 5 uM incubated for 24 hrs by annexin-V FITC and PI staining based flow cytometry analysis (reference value: 93.8%); type: functional; settings: read-out: Activity
HepG2 [10] = experiment: Induction of cell cycle arrest in human HepG2 cells assessed as accumulation of cells at G1 phase at 1 uM incubated for 24 hrs by PI staining based flow cytometry analysis (reference value: 54%); type: functional
HeLa = experiment: Antiproliferative activity against human HeLa cells incubated for 72 hrs by CCK8 assay; type: functional, cell-based
HepG2 [11] = experiment: Upregulation of gamma-H2AX level in human HepG2 cells incubated for 4 hrs by Western blotting analysis; type: functional, cell-based
HepG2 [12] = experiment: Induction of apoptosis in human HepG2 cells assessed as late apoptotic cells at 5 uM incubated for 24 hrs by annexin-V FITC and PI staining based flow cytometry analysis (reference value: 2.3%); type: functional
MDA-MB-231 = experiment: Antiproliferative activity against human MDA-MB-231 cells incubated for 72 hrs by CCK8 assay; type: functional, cell-based
[13] = Antiproliferative activity against human BEAS-2B cells incubated for 72 hrs by CCK8 assay; type: toxicity, cell-based
[14] = Antiproliferative activity against human CCL-226 cells incubated for 72 hrs by CCK8 assay; type: toxicity, cell-based
PC-3 = experiment: Antiproliferative activity against human PC-3 cells incubated for 72 hrs by CCK8 assay; type: functional, cell-based; settings: PC-3, 72 h
[15] = biological target: T1, DNA topoisomerase 2-alpha; experiment: Inhibition of human topoisomerase 2-alpha assessed as reduction in relaxation of pBR322 DNA at 100 uM measured after 30 mins by agarose gel electrophoresis method relative to control
HepG2 [16] = experiment: Induction of cell cycle arrest in human HepG2 cells assessed as accumulation of cells at S phase at 1 uM incubated for 24 hrs by PI staining based flow cytometry analysis (reference value: 28.2%); type: functional
HepG2 [17] = experiment: Induction of apoptosis in human HepG2 cells assessed as early apoptotic cells at 5 uM incubated for 24 hrs by annexin-V FITC and PI staining based flow cytometry analysis (reference value: 3.7%); type: functional
Homo sapiens [18] = organism: Homo sapiens; experiment: Selectivity index, ratio of IC50 for human CCL-226 cells to IC50 for human PC-3 cells
[19] = Selectivity index, ratio of IC50 for human HL-7702 cells to IC50 for human HeLa cells; type: toxicity; settings: HL-7702 cells versus HeLa cells, read-out: Ratio IC50
[20] = Selectivity index, ratio of IC50 for human HL-7702 cells to IC50 for human PC-3 cells; type: toxicity; settings: HL-7702 cells versus PC-3 cells, read-out: Ratio IC50
Homo sapiens [21] = organism: Homo sapiens; experiment: Selectivity index, ratio of IC50 for human CCL-226 cells to IC50 for human HepG2 cells
[22] = biological target: T1, DNA topoisomerase 2-alpha; experiment: Inhibition of human topoisomerase 2-alpha using pBR322 DNA as substrate incubated for 1 hr in presence of ATP by malachite green phosphate method
[23] = Selectivity index, ratio of IC50 for human BEAS-2B cells to IC50 for human HepG2 cells; type: toxicity; settings: BEAS-2B cells versus HepG2 cells, read-out: Ratio IC50
[24] = Selectivity index, ratio of IC50 for human HL-7702 cells to IC50 for human MDA-MB-231 cells; type: toxicity; settings: HL-7702 cells versus MDA-MB-231 cells, read-out: Ratio IC50
[25] = biological target: T1, DNA topoisomerase 2-alpha; experiment: Inhibition of human topoisomerase 2-alpha using pBR322 DNA as substrate incubated for 30 mins in presence of 0.5 to 5 mM ATP (reference value: 2.9 microM)
Homo sapiens [26] = organism: Homo sapiens; experiment: Selectivity index, ratio of IC50 for human CCL-226 cells to IC50 for human A549 cells
DNA topoisomerase 2-beta = DNA topoisomerase 2-beta (Homo sapiens, UniProt Q02880); experiment: Inhibition of human topoisomerase 2-beta assessed as reduction in relaxation of pBR322 DNA measured after 30 mins by agarose gel electrophoresis method
Homo sapiens [27] = organism: Homo sapiens; experiment: Selectivity index, ratio of IC50 for human CCL-226 cells to IC50 for human HeLa cells
[28] = Selectivity index, ratio of IC50 for human BEAS-2B cells to IC50 for human HeLa cells; type: toxicity; settings: BEAS-2B cells versus HeLa cells, read-out: Ratio IC50
[29] = Selectivity index, ratio of IC50 for human BEAS-2B cells to IC50 for human A549 cells; type: toxicity; settings: BEAS-2B cells versus A549 cells, read-out: Ratio IC50
[30] = Selectivity index, ratio of IC50 for human BEAS-2B cells to IC50 for human MDA-MB-231 cells; type: toxicity; settings: BEAS-2B cells versus MDA-MB-231 cells, read-out: Ratio IC50
[31] = Selectivity index, ratio of IC50 for human BEAS-2B cells to IC50 for human HCT-116 cells; type: toxicity; settings: BEAS-2B cells versus HCT-116 cells, read-out: Ratio IC50
[32] = Selectivity index, ratio of IC50 for human HL-7702 cells to IC50 for human HCT-116 cells; type: toxicity; settings: HL-7702 cells versus HCT-116 cells, read-out: Ratio IC50
[33] = biological target: T1, DNA topoisomerase 2-alpha; experiment: Inhibition of human topoisomerase 2-alpha assessed as reduction in relaxation of pBR322 DNA measured after 30 mins by agarose gel electrophoresis method
[34] = Selectivity index, ratio of IC50 for human HL-7702 cells to IC50 for human A549 cells; type: toxicity; settings: HL-7702 cells versus A549 cells, read-out: Ratio IC50
[35] = biological target: T1, DNA topoisomerase 2-alpha; experiment: Inhibition of human topoisomerase 2-alpha assessed as reduction in relaxation of pBR322 DNA at 25 uM measured after 30 mins by agarose gel electrophoresis method relative to control
Homo sapiens [36] = organism: Homo sapiens; experiment: Selectivity index, ratio of IC50 for human CCL-226 cells to IC50 for human MDA-MB-231 cells
Homo sapiens [37] = organism: Homo sapiens; experiment: Selectivity index, ratio of IC50 for human CCL-226 cells to IC50 for human HCT-116 cells
[38] = Selectivity index, ratio of IC50 for human BEAS-2B cells to IC50 for human PC-3 cells; type: toxicity; settings: BEAS-2B cells versus PC-3 cells, read-out: Ratio IC50
[39] = Selectivity index, ratio of IC50 for human HL-7702 cells to IC50 for human HepG2 cells; type: toxicity; settings: HL-7702 cells versus HepG2 cells, read-out: Ratio IC50

T1 sequence (P11388 whole entry): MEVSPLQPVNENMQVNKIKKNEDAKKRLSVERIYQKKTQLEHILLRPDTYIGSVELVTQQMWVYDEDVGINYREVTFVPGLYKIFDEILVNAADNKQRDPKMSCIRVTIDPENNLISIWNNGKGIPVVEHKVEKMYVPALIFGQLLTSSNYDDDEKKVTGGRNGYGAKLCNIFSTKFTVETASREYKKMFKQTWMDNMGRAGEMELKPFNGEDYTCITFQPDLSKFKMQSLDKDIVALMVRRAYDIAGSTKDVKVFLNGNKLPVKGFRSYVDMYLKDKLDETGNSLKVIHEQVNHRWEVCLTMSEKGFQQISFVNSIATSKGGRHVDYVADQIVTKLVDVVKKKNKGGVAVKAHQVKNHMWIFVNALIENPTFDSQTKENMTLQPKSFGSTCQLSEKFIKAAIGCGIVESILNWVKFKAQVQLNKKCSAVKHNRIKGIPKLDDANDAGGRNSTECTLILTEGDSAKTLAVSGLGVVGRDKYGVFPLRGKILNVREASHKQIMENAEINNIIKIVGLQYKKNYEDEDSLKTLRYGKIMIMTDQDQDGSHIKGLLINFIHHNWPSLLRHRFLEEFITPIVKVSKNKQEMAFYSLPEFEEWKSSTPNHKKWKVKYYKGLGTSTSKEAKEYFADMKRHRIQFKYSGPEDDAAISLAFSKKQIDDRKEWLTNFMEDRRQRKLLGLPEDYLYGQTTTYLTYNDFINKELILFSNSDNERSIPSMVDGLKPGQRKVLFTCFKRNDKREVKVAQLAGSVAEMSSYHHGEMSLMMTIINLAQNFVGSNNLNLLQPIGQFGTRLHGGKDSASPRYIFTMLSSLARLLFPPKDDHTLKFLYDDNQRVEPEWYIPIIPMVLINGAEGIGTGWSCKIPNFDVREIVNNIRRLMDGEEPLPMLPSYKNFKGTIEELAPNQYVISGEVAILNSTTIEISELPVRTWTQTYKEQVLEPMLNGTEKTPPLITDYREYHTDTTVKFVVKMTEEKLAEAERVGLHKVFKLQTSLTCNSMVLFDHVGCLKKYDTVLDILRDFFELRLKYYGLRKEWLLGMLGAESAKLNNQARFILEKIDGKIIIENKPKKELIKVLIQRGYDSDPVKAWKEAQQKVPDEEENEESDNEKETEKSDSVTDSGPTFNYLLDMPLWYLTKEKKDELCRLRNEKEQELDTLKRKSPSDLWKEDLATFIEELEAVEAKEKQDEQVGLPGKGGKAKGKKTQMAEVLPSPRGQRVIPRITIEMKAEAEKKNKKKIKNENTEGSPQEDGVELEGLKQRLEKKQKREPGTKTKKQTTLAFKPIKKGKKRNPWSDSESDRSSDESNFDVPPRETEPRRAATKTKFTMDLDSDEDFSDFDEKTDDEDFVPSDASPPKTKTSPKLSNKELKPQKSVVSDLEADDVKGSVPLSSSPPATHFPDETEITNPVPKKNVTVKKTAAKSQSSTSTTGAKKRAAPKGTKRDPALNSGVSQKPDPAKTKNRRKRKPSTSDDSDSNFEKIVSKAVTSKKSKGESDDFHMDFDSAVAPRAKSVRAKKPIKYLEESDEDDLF
Sequence of DNA topoisomerase 2-beta (Q02880 whole entry): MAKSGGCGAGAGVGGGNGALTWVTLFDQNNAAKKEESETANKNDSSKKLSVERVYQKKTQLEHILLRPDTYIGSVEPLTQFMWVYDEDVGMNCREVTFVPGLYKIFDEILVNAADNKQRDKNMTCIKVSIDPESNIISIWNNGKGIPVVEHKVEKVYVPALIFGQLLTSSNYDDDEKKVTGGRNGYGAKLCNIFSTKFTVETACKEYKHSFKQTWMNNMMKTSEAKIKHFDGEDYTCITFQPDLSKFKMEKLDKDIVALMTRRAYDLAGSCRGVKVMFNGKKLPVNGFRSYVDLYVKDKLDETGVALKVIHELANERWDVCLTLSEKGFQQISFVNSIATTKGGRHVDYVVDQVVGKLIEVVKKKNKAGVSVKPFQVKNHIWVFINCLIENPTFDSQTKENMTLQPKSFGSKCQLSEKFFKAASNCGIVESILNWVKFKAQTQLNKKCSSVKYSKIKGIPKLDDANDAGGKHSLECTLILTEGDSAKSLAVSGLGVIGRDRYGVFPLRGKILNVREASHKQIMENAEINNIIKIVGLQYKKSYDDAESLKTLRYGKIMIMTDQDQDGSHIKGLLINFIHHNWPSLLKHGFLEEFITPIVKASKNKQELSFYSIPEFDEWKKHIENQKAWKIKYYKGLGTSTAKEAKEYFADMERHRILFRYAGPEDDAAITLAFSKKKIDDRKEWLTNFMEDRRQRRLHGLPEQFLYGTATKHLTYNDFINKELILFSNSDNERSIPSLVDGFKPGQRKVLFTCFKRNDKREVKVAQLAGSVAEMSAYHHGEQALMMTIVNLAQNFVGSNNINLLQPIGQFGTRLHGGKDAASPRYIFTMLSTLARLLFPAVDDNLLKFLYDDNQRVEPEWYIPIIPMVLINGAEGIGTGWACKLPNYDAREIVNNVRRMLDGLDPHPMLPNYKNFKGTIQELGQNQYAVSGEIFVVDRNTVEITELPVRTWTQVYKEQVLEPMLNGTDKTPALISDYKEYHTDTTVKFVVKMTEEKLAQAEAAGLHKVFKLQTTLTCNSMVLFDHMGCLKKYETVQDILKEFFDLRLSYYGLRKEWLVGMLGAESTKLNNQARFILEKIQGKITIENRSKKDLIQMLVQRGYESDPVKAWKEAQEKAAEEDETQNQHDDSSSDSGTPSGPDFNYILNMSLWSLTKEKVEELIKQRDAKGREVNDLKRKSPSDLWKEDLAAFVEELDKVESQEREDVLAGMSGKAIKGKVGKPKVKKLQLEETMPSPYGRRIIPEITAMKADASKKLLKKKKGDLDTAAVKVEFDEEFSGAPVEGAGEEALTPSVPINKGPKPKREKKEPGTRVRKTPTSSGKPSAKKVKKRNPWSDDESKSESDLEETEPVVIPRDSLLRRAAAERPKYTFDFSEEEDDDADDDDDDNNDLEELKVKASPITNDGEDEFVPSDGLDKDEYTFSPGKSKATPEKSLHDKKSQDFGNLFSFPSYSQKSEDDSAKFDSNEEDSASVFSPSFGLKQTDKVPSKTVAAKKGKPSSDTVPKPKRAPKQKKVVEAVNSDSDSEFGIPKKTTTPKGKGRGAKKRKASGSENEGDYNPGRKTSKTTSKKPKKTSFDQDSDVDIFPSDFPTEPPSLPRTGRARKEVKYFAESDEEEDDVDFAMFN

IC50 (HepG2 [2]; Homo sapiens, HepG2, 72 h)	IC50 (HCT-116)	IC50 (A549)	IC50 (HeLa)	IC50 (MDA-MB-231; Homo sapiens, MDA-MB-231, 72 h)	IC50 (PC-3)	inhibition [15]	Ratio IC50 (Homo sapiens [18])	Ratio IC50 (Homo sapiens [21])	Ratio IC50 (Homo sapiens [26])	IC50 (DNA topoisomerase 2-beta)	Structure (SMILES)	inhibition [6]	IC50 at 72 h [8]	Activity (HepG2 [11])	IC50 at 72 h [13]	IC50 at 72 h [14]	selectivity ratio [19]	selectivity ratio [20]	selectivity ratio [23]	selectivity ratio [24]	other results
0.7 µM	0.6 µM	1 µM	0.5 µM	0.8 µM	0.9 µM	81%	> 28.1	> 28.1	> 28.1	17.2 µM	O=C(/C=C/c1ccccc1)Nc1ccc(-c2ccc3cc(O)ccc3c2)cc1	inactive	> 50 µM	inactive	26.9 µM	> 50 µM	> 28.1	> 28.1	> 28.1	> 28.1	inhibition [22]: Dose-Dependent Effect; Activity [5]: inactive; IC50 [25]: 8.6 µM; Ratio IC50 (Homo sapiens [27]): > 28.1; selectivity ratio [28]: > 28.1; selectivity ratio [29]: > 28.1; selectivity ratio [30]: > 28.1; selectivity ratio [31]: > 28.1; selectivity ratio [32]: > 28.1; IC50 [33]: 3.3 µM; selectivity ratio [34]: > 28.1; inhibition [35]: 86.2%; Ratio IC50 (Homo sapiens [36]): > 28.1; Ratio IC50 (Homo sapiens [37]): > 28.1; selectivity ratio [38]: > 28.1; selectivity ratio [39]: > 28.1
2.4 µM	2.1 µM	4.1 µM	1.9 µM	4.1 µM	2.3 µM	82.6% and 76.1%	> 9.2	> 9.2	> 9.2	195 µM	O=C(/C=C/c1ccccc1)Nc1ccc(/C=C/c2cc(O)cc(O)c2)cc1		37.8 µM		> 50 µM	> 50 µM	> 9.2	> 9.2	> 9.2	> 9.2	IC50 (HepG2 [2]; hepg2): 2.9 µM; Ratio IC50 (Homo sapiens [27]): > 9.2; selectivity ratio [28]: > 9.2; selectivity ratio [29]: > 9.2; selectivity ratio [30]: > 9.2; IC50 (MDA-MB-231; mda-mb-231): 3.6 µM; selectivity ratio [31]: > 9.2; selectivity ratio [32]: > 9.2; IC50 [33]: 16.6 µM; selectivity ratio [34]: > 9.2; inhibition [35]: 71.2% and 61.6%; Ratio IC50 (Homo sapiens [36]): > 9.2; Ratio IC50 (Homo sapiens [37]): > 9.2; selectivity ratio [38]: > 9.2; selectivity ratio [39]: > 9.2

Structure (SMILES)	IC50 (HepG2 [2]; Homo sapiens, HepG2, 72 h)	IC50 (HCT-116)	IC50 (A549)	IC50 (HeLa)	IC50 (MDA-MB-231; Homo sapiens, MDA-MB-231, 72 h)	IC50 (PC-3)	inhibition [15]	Ratio IC50 (Homo sapiens [18])	Ratio IC50 (Homo sapiens [21])	Ratio IC50 (Homo sapiens [26])	IC50 (DNA topoisomerase 2-beta)	inhibition [6]	IC50 at 72 h [8]	Activity (HepG2 [11])	IC50 at 72 h [13]	IC50 at 72 h [14]	selectivity ratio [19]	selectivity ratio [20]	selectivity ratio [23]	selectivity ratio [24]	other results
COc1cc([C@@H]2c3cc4c(cc3[C@@H](O[C@@H]3O[C@@H]5CO[C@@H](C)O[C@H]5[C@H](O)[C@H]3O)[C@H]3COC(=O)[C@H]23)OCO4)cc(OC)c1O [ETOPOSIDE]	8.1 µM	2.4 µM	15.1 µM	1.5 µM	5.6 µM	3 µM	43.3%					inactive	39.1 µM	Active	21 µM	20.8 µM					Activity (HepG2 [1]): 25.2%; mortality at 168 h [3]: 33.3%; Activity (HepG2 [4]): 0.6%; Activity ([5]; filed as activator): Active; Activity [7]: Toxic; viability at 5 µM (HepG2 [9]): 76.9%; Activity (HepG2 [10]): 1.1%; Activity (HepG2 [12]): 11.8%; Activity (HepG2 [16]): 73.7%; Activity (HepG2 [17]): 10.7%
